Measurements published in patent publication US6030960A, “Method of treating hepatitis virus infections” (priority 1998, dated 2000).
Converted amounts (≈) assume the structure as drawn. “And” between values parts separate entries of the source, which are not always exact repeats. Identical values can stand only once. “Also recorded” adds a separate entry of the source.

Key:
Hepatitis B virus [1] = assay: Effect of alkyl lipids on HBV replication in HBV persistently infected human HEP G2 cells (Table 6); format: cell-based; conditions: for Intracellular HBV DNA, Mono (episomal 3.2-3.8 Kb HBV genomes) / Intracellular HBV DNA, RI (replication intermediates): nine days
Summary of the method: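 Persistently HBV-infected HepG2 cells exposed to compound for nine days at 37 °C, intracellular HBV DNA analysed 24 h after day nine. Episomal 3.2-3.8 Kb genomes and replication intermediates normalized to integrated HBV DNA; virion DNA detection cut-off 0.1 pg DNA/ml culture medium.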

[2] = Cytotoxicity of alkyl lipids, neutral red dye uptake (Table 1); format: cell-based; conditions: human, hep-g2 cells
Description: Initially, evaluations of the alkyl lipids were done to determine whether the compounds were cytotoxic to the cells at concentrations having anti-HBV activity. The assay methodology is szt forth in Korba and Germ, Antiviral Res., 19, 55-70 (1992), incorporated by reference herein. Briefly, these cell cytotoxicity evaluations were done in 96-well plates seeded with HEP-G2 cell monolayers. The hepatoblastoma cell line HEP-G2 transfected with a plasmid carrying the gene that confers resistance to […] and four 5'-3' tandem copies of the Hepatitis B virus genome was obtained from Dr. George Acs. Proc. Natl. Acad. Sci. USA, 84, 1005-1009 (1987). Serial concentrations of compound were added to the RPMI-1640 growth medium and the growth medium was added to the 96-well plates containing the cell monolayers. The cells were incubated for a total of nine days at 37° C. The compound-containing medium was periodically replaced. Each compound was tested at four serial concentrations in triplicate. After nine days of treatment and incubation, 0.01% neutral red dye (Sigma, Inc.) was added to the overlay medium. Cell cytotoxicity was quantitated by measuring the average A510. Values in Table 1 represent the percentage of average A510 values (±standard deviation) relative to nine non-treated control wells.

Hepatitis B virus [3] = assay: Effect on synthesis of antigen markers in persistently infected human HEP G2 cell cultures (Table 7); format: cell-based; conditions: for activity at 10 µM: Hepatitis B virus, HepG2, 216 h
Summary of the method: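 Persistently infected HepG2 cells treated with compound for nine days at 37° C. Culture medium then harvested: HBsAg and HBeAg quantified by EIA, virion DNA by hybridisation-based DNA measurement. Sensitivity cut-off 0.1 pg DNA/ml medium.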

Hepatitis B virus [4] = assay: Anti-hepatitis B virus activity in HEP-G2 cells persistently infected with HBV (Table 2); format: cell-based; conditions: for activity at 10 µM: Hepatitis B virus, HepG2, 216 h
Method: HEP-G2 cells persistently infected with HBV were treated daily with fresh D-MEM containing 20% FBS and 10 μM compound. After 9 days incubation and treatment, the overlay medium was harvested to assay the quantity of Hepatitis B virus s antigen (HBsAg) and HBeAg by EIA (Abbott Laboratories). The overlay medium was diluted to levels of antigen in the linear range of the assay. Standard curves using dilutions of positive HBsAg and HBeAg controls were included in each assay. Virion DNA was assayed using the method set forth in Korba and Gerin, Antiviral Res., 19, 5,5-70 (1992), incorporated by reference herein. HBV DNA was extracted from the overlay medium containing virus particles and analyzed by a slot-blot hybridization technique using ^32 P-labelled 3.2 Kb Eco R1 HBV DNA fragment by comparisons to HBV standards present on nitrocellulose filters using an AMBIS beta scanner. EC90 values (90% effective concentration, i.e., drug concentration which induces a 90% decrease in the levels of HBV DNA replication intermediates in treated versus control cells) were calculated by linear regression analysis. The relative levels of HBsAg, HBeAg and virion DNA were calulated as a percentage of the average levels obtained from the untreated controls.

[5] = Cytotoxicity in HBV persistently infected human HEP G2 cells, neutral red dye uptake (Table 5); format: cell-based; conditions: human, hep-g2 cells, % of Control Neutral Red Dye Uptake
Summary of the method: (§1)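 HBV-transfected HEP-G2 monolayers in RPMI-1640 were given compound at four serial concentrations in triplicate for nine days at 37 °C, with periodic medium replacement. Toxicity from 0.01% neutral red uptake (A510), as percent of nine untreated control wells on the same plate.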

[6] = test system: HEP G2 cells persistently infected with HBV; assay: as above; format: cell-based
Summary of the method: as §1

Friend-Leukemia virus = assay: Inhibition of retrovirus-induced splenomegaly in Friend-Leukemia virus infected mice (Table 9); format: in vivo
Method: Mice were infected I.P. with Friend-Leukemia virus and not treated or treated I.P. with daily doses of phospholipid. After 14 days infection and treatment, the mice were sacrificed, the spleens were removed and weighed to determine the percentage, of control splenomegaly. […] Even a single dose of 25 mg/kg CP-51 inhibited splenomegaly by 36%.

[7] = test system: granulocyte/macrophage (CFU-GM); assay: Cytotoxicity: inhibition of mouse granulocyte/macrophage (CFU-GM) colony formation; format: cell-based; conditions: read-out: inhibitory concentration 50% for colony formation (IC50)
Method: CP-51 and AZT were assayed for cytotoxicity by inhibition of mouse precursor erythrocyte (CFU-E) and granulocyte/macrophage (CFU-GM) cell colony formation. Mouse bone marrow precursor cells were suspended in soft-agar-RPMI-1640 medium supplmented with cell growth factors and serial concentrations of alkyl lipid.

[8] = test system: mouse precursor erythrocyte (CFU-E); assay: Cytotoxicity: inhibition of mouse precursor erythrocyte (CFU-E) colony formation; format: cell-based; conditions: Mus musculus, Erythrocyte, read-out: inhibitory concentration 50% for colony formation (IC50)
Method: CP-51 and AZT were assayed for cytotoxicity by inhibition of mouse precursor erythrocyte (CFU-E) and granulocyte/macrophage (CFU-GM) cell colony formation.

## CCCCCCCCCCCCCCCC(=O)NCC(COP(=O)([O-])OCC[N+](C)(C)C)OCC (racemic) [CP-49, rac-3-hexadecanamido-2-ethoxy-1-propylphosphocholine]
Hepatitis B virus [1]; 0.1 μM, Day 0
  HBV Virion DNA: 71 pg/ml Culture Medium and 55 pg/ml Culture Medium and 72 pg/ml Culture Medium and 62 pg/ml Culture Medium
Hepatitis B virus [1]; 0.1 μM, Day 3
  HBV Virion DNA: 72 pg/ml Culture Medium and 56 pg/ml Culture Medium and 88 pg/ml Culture Medium and 75 pg/ml Culture Medium
Hepatitis B virus [1]; 0.1 μM, Day 6
  HBV Virion DNA: 62 pg/ml Culture Medium and 69 pg/ml Culture Medium and 55 pg/ml Culture Medium
Hepatitis B virus [1]; 0.1 μM, Day 9
  HBV Virion DNA: 75 pg/ml Culture Medium and 65 pg/ml Culture Medium and 77 pg/ml Culture Medium and 57 pg/ml Culture Medium
Hepatitis B virus [1]; 0.1 μM
  Intracellular HBV DNA, Mono (episomal 3.2-3.8 Kb HBV genomes): 2.2 pg/μg Cell DNA and 2.3 pg/μg Cell DNA and 2.5 pg/μg Cell DNA and 2.6 pg/μg Cell DNA
  Intracellular HBV DNA, RI (replication intermediates): 60 pg/μg Cell DNA and 61 pg/μg Cell DNA and 74 pg/μg Cell DNA and 79 pg/μg Cell DNA
Hepatitis B virus [1]; 1 μM, Day 0
  HBV Virion DNA: 56 pg/ml Culture Medium and 51 pg/ml Culture Medium and 66 pg/ml Culture Medium and 79 pg/ml Culture Medium
Hepatitis B virus [1]; 1 μM, Day 3
  HBV Virion DNA: 56 pg/ml Culture Medium and 58 pg/ml Culture Medium and 60 pg/ml Culture Medium and 68 pg/ml Culture Medium
Hepatitis B virus [1]; 1 μM, Day 6
  HBV Virion DNA: 38 pg/ml Culture Medium and 41 pg/ml Culture Medium and 43 pg/ml Culture Medium and 44 pg/ml Culture Medium
Hepatitis B virus [1]; 1 μM, Day 9
  HBV Virion DNA: 10 pg/ml Culture Medium and 13 pg/ml Culture Medium and 11 pg/ml Culture Medium and 18 pg/ml Culture Medium
Hepatitis B virus [1]; 1 μM
  Intracellular HBV DNA, Mono (episomal 3.2-3.8 Kb HBV genomes): 2.3 pg/μg Cell DNA and 2.4 pg/μg Cell DNA and 2.2 pg/μg Cell DNA and 2.1 pg/μg Cell DNA
  Intracellular HBV DNA, RI (replication intermediates): 24 pg/μg Cell DNA and 20 pg/μg Cell DNA and 25 pg/μg Cell DNA and 30 pg/μg Cell DNA
Hepatitis B virus [1]; 10 μM, Day 0
  HBV Virion DNA: 73 pg/ml Culture Medium and 53 pg/ml Culture Medium and 56 pg/ml Culture Medium and 77 pg/ml Culture Medium
Hepatitis B virus [1]; 10 μM, Day 3
  HBV Virion DNA: 49 pg/ml Culture Medium and 55 pg/ml Culture Medium and 57 pg/ml Culture Medium and 50 pg/ml Culture Medium
Hepatitis B virus [1]; 10 μM, Day 6
  HBV Virion DNA: 21 pg/ml Culture Medium and 22 pg/ml Culture Medium and 19 pg/ml Culture Medium and 24 pg/ml Culture Medium
Hepatitis B virus [1]; 10 μM
  Intracellular HBV DNA, Mono (episomal 3.2-3.8 Kb HBV genomes): 2.6 pg/μg Cell DNA and 2.4 pg/μg Cell DNA and 2.2 pg/μg Cell DNA and 2.7 pg/μg Cell DNA
  Intracellular HBV DNA, RI (replication intermediates): 9 pg/μg Cell DNA and 8 pg/μg Cell DNA and 6 pg/μg Cell DNA
Hepatitis B virus [1]; in words, versus ddC
  inhibition of HBV virion DNA and intracellular HBV RI DNA levels: markedly inhibited; also recorded: substantially inhibited
[2]; 3 μM, nine days, read-out: % of Control Neutral Red Dye Uptake
  viability at 216 h, 3 µM: 99 ± 3%
[2]; 10 μM, nine days, read-out: % of Control Neutral Red Dye Uptake
  viability at 216 h, 10 µM: 99 ± 4%
[2]; 30 μM, nine days, read-out: % of Control Neutral Red Dye Uptake
  viability at 216 h, 30 µM: 60 ± 4%
[2]; 30 μM, read-out: inhibition of neutral red dye uptake
  cytotoxicity at 216 h, 30 µM: 40%
[2]; 100 μM, nine days, read-out: % of Control Neutral Red Dye Uptake
  viability at 216 h, 100 µM: 29 ± 1%
Hepatitis B virus [3]; 10 μM, nine days, 12960 min
  Relative Level of HBeAg: 26 % of Untreated Control
  Relative Level of HBsAg: 113 % of Untreated Control
  Relative Level of Virion DNA: 1 % of Untreated Control
Hepatitis B virus [3]; read-out: Relative Level of HBeAg, 10 μM, nine days
  activity at 10 µM: 33%
Hepatitis B virus [3]; read-out: Relative Level of HBsAg, 10 μM, nine days
  activity at 10 µM: 116%
Hepatitis B virus [3]; read-out: Relative Level of Virion DNA, 10 μM, nine days
  activity at 10 µM: 1%
Hepatitis B virus [3]; in words
  effect on HBsAg levels released into the culture medium: None of the compounds tested
  reduction in HBeAg and virion DNA levels: caused a reduction; also recorded: most active compounds in suppressing HBeAg and virion DNA levels
Hepatitis B virus [4]; 10 μM, in words
  activity against HBV-induced virion DNA and HBeAg syntheses: potent inhibitory activity
Hepatitis B virus [4]; read-out: Relative Level of HBeAg
  activity at 10 µM: 30%
Hepatitis B virus [4]; read-out: Relative Level of HBsAg
  activity at 10 µM: 115%
Hepatitis B virus [4]; read-out: Relative Level of Virion DNA
  activity at 10 µM: 1%
[5]
  viability at 216 h, 3 µM: 99 ± 3%
  viability at 216 h, 10 µM: 97 ± 2%
  viability at 216 h, 100 µM: 45 ± 4%
[6]; at concentrations with strong or moderate antiviral activity
  Cell toxicity (greater than 50% depression of dye uptake): did not occur
[6]; human, hep-g2 cells, 216 h, 100 µM
  % of Control Neutral Red Dye Uptake: 29 ± 1 % of Control

## Cc1cn([C@H]2C[C@H](N=[N+]=[N-])[C@@H](CO)O2)c(=O)[nH]c1=O [AZT, 3'-azido-3'deoxythymidine, reference compound]
Friend-Leukemia virus; 12.5 mg/kg/day intraperitoneally
  inhibition of retrovirus-induced splenomegaly: 10%
Friend-Leukemia virus; 12.5 mg/kg/day, daily treatment
  % of Control Splenomegaly: 10 % of Control
[7]
  IC50: 0.27 µg/mL (≈ 1.01 µM)
[8]
  IC50: 0.43 µg/mL (≈ 1.61 µM)
